# Data from US7569578B2, “Heterocyclic anti-migraine agents” (Bristol-Meyers Squibb Company, priority 2003, dated 2009).
# Target: T1, Human CGRP1 Receptor (Homo sapiens, UniProt O60894+Q16602)
# T1 construct: endogenous in cells; host or cells: SK-N-MC cells (membrane homogenate)
# Test: CGRP Binding Assay ([125I]-CGRP radioligand displacement, SK-N-MC membrane homogenate)
# Conditions: [125I]-CGRP displacement, SK-N-MC homogenate, room temperature 2 h; read-out: Human CGRP1 Receptor IC50
# Protocol: Tissue Culture. SK-N-MC cells were grown at 37° C. in 5% CO2 as a monolayer in medium consisting of MEM with Earle's salts and L-glutamine (Gibco) supplemented with 10% fetal bovine serum (Gibco).
# Cell Pellets. […] The cells were transferred from plates to polypropylene tubes (16×100 mm) and homogenized using a polytron. Homogenates were centrifuged at 32,000×g for 30 min. The pellets were resuspended in cold hypotonic lysis buffer with 0.1% mammalian protease inhibitor cocktail (Sigma) and assayed for protein concentration. The SK-N-MC homogenate was then aliquoted and stored at −80° C. until needed.
# Radioligand Binding Assay. The compounds of invention were solubilized and carried through serial dilutions using 100% DMSO. Aliquots from the compound serial dilutions were further diluted 25 fold into assay buffer (50 mM Tris-Cl pH 7.5, 5 mM MgCl2, 0.005% Triton X-100) and transferred (volume 50 μl) into 96 well assay plates. […] SK-N-MC pellets were thawed, diluted in assay buffer with fresh 0.1% mammalian protease inhibitor cocktail (Sigma), and homogenized again. SK-N-MC homogenate (5 μg/well) was added in a volume of 100 μl. The assay plates were then incubated at room temperature for 2 h. Assays were stopped by addition of excess cold wash buffer (20 mM Tris-Cl pH 7.5, 0.1% BSA) immediately followed by filtration over glass fiber filters (Whatman GF/B) previously soaked in 0.5% PEI. Non-specific binding was defined with 1 μM beta-CGRP. Protein bound radioactivity was determined using a gamma or scintillation counter.
# T1 sequence (Q16602 23-461): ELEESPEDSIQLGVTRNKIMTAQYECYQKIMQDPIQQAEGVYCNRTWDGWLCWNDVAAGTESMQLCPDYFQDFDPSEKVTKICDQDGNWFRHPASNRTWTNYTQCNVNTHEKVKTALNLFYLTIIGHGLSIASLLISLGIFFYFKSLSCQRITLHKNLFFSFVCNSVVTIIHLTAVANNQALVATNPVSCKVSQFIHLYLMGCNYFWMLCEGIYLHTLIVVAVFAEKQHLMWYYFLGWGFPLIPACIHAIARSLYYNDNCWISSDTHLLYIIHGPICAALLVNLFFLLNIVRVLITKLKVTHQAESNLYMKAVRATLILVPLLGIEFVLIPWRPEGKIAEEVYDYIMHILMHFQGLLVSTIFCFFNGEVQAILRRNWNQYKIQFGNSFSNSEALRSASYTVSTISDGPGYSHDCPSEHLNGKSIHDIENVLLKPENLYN
# T1 sequence (O60894 27-148): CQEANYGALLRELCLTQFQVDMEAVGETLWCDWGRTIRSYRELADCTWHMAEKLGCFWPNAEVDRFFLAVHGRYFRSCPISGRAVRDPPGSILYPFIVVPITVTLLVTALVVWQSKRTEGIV
row,Compound,IC50 [nM]
1,"Cc1cc(CC(CC(=O)N2CCC(N3Cc4ccccc4NC3=O)CC2)c2ccccn2)cc2cn[nH]c12 (racemic) [Example 1, (±)-3-{1-[4-(7-Methyl-1H-indazol-5-yl)-3-pyridin-2-yl-butyryl]-piperidin-4-yl}-3,4-dihydro-1H-quinazolin-2-one]",< 10
2,"Cc1cc(CC(CC(=O)N2CCC(N3Cc4ccccc4NC3=O)CC2)c2nc(CN3CCCCC3)no2)cc2cn[nH]c12 (racemic) [Example 3, (±)-3-{1-[4-(7-Methyl-1H-indazol-5-yl)-3-(3-piperidin-1-ylmethyl [1,2,4]oxadiazol-5-yl)-butyryl]-piperidin-4-yl}-3,4-dihydro-1H-quinazolin-2-one]",10 to 100
3,"Cc1cc(CC(OC(=O)N2CCC(N3Cc4ccccc4NC3=O)CC2)c2cccnc2)cc2cn[nH]c12 (stereo not drawn) [Example 58, 2-(7-Methyl-1H-indazol-5-yl)-1-(pyridin-3-yl)ethyl 4-(2-oxo-1,2-dihydroquinazolin-3(4H)-yl)piperidine-1-carboxylate]",100 to 1000
4,"Cc1cc(C[C@@H](OC(=O)N2CCC(N3Cc4ccccc4NC3=O)CC2)c2nc(-c3ccncc3)no2)cc2cn[nH]c12 [Example 101, (R)-2-(7-Methyl-1H-indazol-5-yl)-1-(3-(pyridin-4-yl)-1,2,4-oxadiazol-5-yl)ethyl 4-(2-oxo-1,2-dihydroquinazolin-3(4H)-yl)piperidine-1-carboxylate]",10 to 100
5,"Cc1c[nH]c(C(Cc2cc(C)c3[nH]ncc3c2)NC(=O)N2CCC(N3Cc4ccccc4NC3=O)CC2)n1 (racemic) [Example 90, (±)-N-(1-(4-Methyl-1H-imidazol-2-yl)-2-(7-methyl-1H-indazol-5-yl)ethyl)-4-(2-oxo-1,2-dihydroquinazolin-3(4H)-yl)piperidine-1-carboxamide]",100 to 1000
6,"Cc1cc(CC(CC(=O)N2CCC(N3Cc4ccccc4NC3=O)CC2)c2ccc(CO)cn2)cc2cn[nH]c12 (racemic) [Example 27, (±)-3-(1-(3-(5-(Hydroxymethyl)pyridin-2-yl)-4-(7-methyl-1H-indazol-5-yl)butanoyl)piperidin-4-yl)-3,4-dihydroquinazolin-2(1H)-one]",< 10
7,"Cc1cn(Cc2cccc(F)c2)c(C(Cc2cc(C)c3[nH]ncc3c2)NC(=O)N2CCC(N3Cc4ccccc4NC3=O)CC2)n1 (racemic) [Example 89, (±)-N-(1-(1-(3-Fluorobenzyl)-4-methyl-1H-imidazol-2-yl)-2-(7-methyl-1H-indazol-5-yl)ethyl)-4-(2-oxo-1,2-dihydroquinazolin-3(4H)-yl)piperidine-1-carboxamide]",< 10
8,"Cc1cccc(C(Cc2cc(C)c3[nH]ncc3c2)NC(=O)N2CCC(N3Cc4ccccc4NC3=O)CC2)n1 (racemic) [Example 38, (±)-N-(2-(7-Methyl-1H-indazol-5-yl)-1-(6-methylpyridin-2-yl)ethyl)-4-(2-oxo-1,2-dihydroquinazolin-3(4H)-yl)piperidine-1-carboxamide]",< 10
9,"Cc1cc(CC(OC(=O)N2CCC(N3Cc4cccc(F)c4NC3=O)CC2)c2ccco2)cc2cn[nH]c12 (stereo not drawn) [Example 60, 1-(Furan-2-yl)-2-(7-methyl-1H-indazol-5-yl)ethyl 4-(8-fluoro-2-oxo-1,2-dihydroquinazolin-3(4H)-yl)piperidine-1-carboxylate]",10 to 100
10,"Cc1cc(CC(CC(=O)N2CCC3(CC2)OC(=O)Nc2ccccc23)c2nc(Cc3ccccc3)no2)cc2cn[nH]c12 (racemic) [Example 8, (±)-3-{1-[3-(3-Benzyl-[1,2,4]oxadiazol-5-yl)-4-(7-methyl-1H-indazol-5-yl)-butyryl]-4,4′-piperidinyl}-1′,2′-dihydro-2′-oxospiro-[4H-3′,1-benzoxazine]",10 to 100
11,"Cc1cc(CC(NC(=O)N2CCC(N3Cc4ccccc4NC3=O)CC2)c2nccn2Cc2cccnc2)cc2cn[nH]c12 (racemic) [Example 91, (±)-N-(2-(7-Methyl-1H-indazol-5-yl)-1-(1-(pyridin-3-ylmethyl)-1H-imidazol-2-yl)ethyl)-4-(2-oxo-1,2-dihydroquinazolin-3(4H)-yl)piperidine-1-carboxamide]",< 10
12,"CCc1cc(CC(NC(=O)N2CCC(N3Cc4ccccc4NC3=O)CC2)c2nnn(CC(=O)c3ccccc3)n2)cc2c(C)n[nH]c12 (racemic) [Example 20, (±)-4-(2-Oxo-1,4-dihydro-2H-quinazolin-3-yl)-piperidine-1-carboxylic acid [2-(7-ethyl-3-methyl-1H-indazol-5-yl)-1-(2-oxo-2Phenethyl-2H-tetrazol-5-yl)-ethyl]-amide]",10 to 100
13,"Cc1cc(CC(NC(=O)N2CCC(N3Cc4ccccc4NC3=O)CC2)c2cccc(-c3ccccc3)n2)cc2cn[nH]c12 (racemic) [Example 37, (±)-N-(2-(7-Methyl-1H-indazol-5-yl)-1-(6-phenylpyridin-2-yl)ethyl)-4-(2-oxo-1,2-dihydroquinazolin-3(4H)-yl)piperidine-1-carboxamide]",10 to 100
14,"Cc1cc(CC(OC(=O)N2CCC(N3Cc4cccc(F)c4NC3=O)CC2)c2cc3ccccc3cn2)cc2cn[nH]c12 (stereo not drawn) [Example 52, 1-(Isoquinolin-3-yl)-2-(7-methyl-1H-indazol-5-yl)ethyl 4-(8-fluoro-2-oxo-1,2-dihydroquinazolin-3(4H)-yl)piperidine-1-carboxylate]",< 10
15,"(±)-4-(2-Oxo-1,4-dihydro-2H-quinazolin-3-yl)-piperidine-1-carboxylic acid [2-(7-ethyl-3-methyl-1H-indazol-5-yl)-1-pyridin-4-yl methyl-1H-tetrazol-5-yl)-ethyl]-amide [Example 19]",< 10
16,"Cc1cc(CC(CC(=O)N2CCC(N3Cc4ccccc4NC3=O)CC2)c2nc(Cc3ccccc3)no2)cc2cn[nH]c12 (racemic) [Example 2, (±)-3-{1-[3-(3-Benzyl-[1,2,4]oxadiazol-5-yl)-4-(7-methyl-1H-indazol-5-yl)-butyryl]-piperidin-4-yl}-3,4-dihydro-1H-quinazolin-2-one]",< 10
17,"Cc1cc(CC(NC(=O)N2CCC(N3Cc4cccc(F)c4NC3=O)CC2)c2nnc3ccccn23)cc2cn[nH]c12 (racemic) [Example 83, (±)-N-(1-([1,2,4]Triazolo [4,3-a]pyridin-3-yl)-2-(7-methyl-1H-indazol-5-yl)ethyl)-4-(8-fluoro-2-oxo-1,2-dihydroquinazolin-3(4H)-yl)piperidine-1-carboxamide]",< 10
18,"Cc1cc(CC(NC(=O)N2CCC(N3Cc4ccccc4NC3=O)CC2)c2ccccn2)cc2cn[nH]c12 (racemic) [Example 31, (±)-N-(2-(7-Methyl-1H-indazol-5-yl)-1-(pyridin-2-yl)ethyl)-4-(2-oxo-1,2-dihydroquinazolin-3(4H)-yl)piperidine-1-carboxamide]",< 10
19,"Cc1cc(CC(NC(=O)N2CCC(N3Cc4ccccc4NC3=O)CC2)c2nccn2Cc2cccc(C(N)=O)c2)cc2cn[nH]c12 (racemic) [Example 77, (±)-N-(1-(1-(3-Carbamoylbenzyl)-1H-imidazol-2-yl)-2-(7-methyl-1H-indazol-5-yl)ethyl)-(2-oxo-1,2-dihydroquinazolin-3(4H)-yl)piperidine-1-carboxamide]",< 10
20,"Cc1cc(C)nc(C(Cc2cc(C)c3[nH]ncc3c2)OC(=O)N2CCC(N3Cc4cccc(F)c4NC3=O)CC2)n1 (stereo not drawn) [Example 63, 1-(4,6-Dimethylpyrimidin-2-yl)-2-(7-methyl-1H-indazol-5-yl)ethyl 4-(8-fluoro-2-oxo-1,2-dihydroquinazolin-3(4H)-yl)piperidine-1-carboxylate]",100 to 1000
21,"Cc1cc(CC(NC(=O)N2CCC(N3Cc4cccc(F)c4NC3=O)CC2)c2ccc3ccccc3n2)cc2cn[nH]c12 (racemic) [Example 35, (±)-4-(8-Fluoro-2-oxo-1,2-dihydroquinazolin-3(4H)-yl)-N-(2-(7-methyl-1H-indazol-5-yl)-1-(quinolin-2-yl)ethyl)piperidine-1-carboxamide]",< 10
22,"CCc1cc(CC(NC(=O)N2CCC(N3Cc4ccccc4NC3=O)CC2)c2nnnn2CC(=O)c2ccccc2)cc2c(C)n[nH]c12 (racemic) [Example 21, (±)-4-(2-Oxo-1,4-dihydro-2H-quinazolin-3-yl)-piperidine-1-carboxylicacid [2-(7-ethyl-3-methyl-1H-indazol-5-yl)-1-[1-(2-oxo-2-phenyl-ethyl)-1H-tetrazol-5-yl)-ethyl]-amide]",10 to 100
23,"Cc1cc(CC(OC(=O)N2CCC(N3Cc4cccc(F)c4NC3=O)CC2)c2cccc(Cc3cc(F)cc(F)c3)n2)cc2cn[nH]c12 (racemic) [Example 44, (±)-1-(6-(3,5-Difluorobenzyl)pyridin-2-yl)-2-(7-methyl-1H-indazol-5-yl)ethyl 4-(8-fluoro-2-oxo-1,2-dihydroquinazolin-3(4H)-yl)piperidine-1-carboxylate]",< 10
24,"Cc1cc(CC(NC(=O)N2CCC(N3Cc4ccccc4NC3=O)CC2)c2nc(Cc3ccccc3)no2)cc2cn[nH]c12 (racemic) [Example 10, (±)-4-(2-Oxo-1,4-dihydro-2H-quinazolin-3-yl)-piperidine-1-carboxylic acid [1-(3-benzyl-[1,2,4]oxadiazol-5-yl)-2-(7-methyl-1H-indazol-5-yl)-ethyl]-amide]",< 10
